In brackets after ≈: the same amount, converted by molar mass.
What was measured:
Type in all cases: functional
[1] = test system: KB; assay: Cytotoxicity against human KB cells at 5 ug/ml
[2] = test system: KB; assay: Cytotoxicity against human KB cells at 0.005 to 10 ug/ml
[3] = test system: KB; assay: Cytotoxicity against human KB cells; conditions: read-out: ED50 (the source's name)
[4] = test system: KB; assay: Cytotoxicity against human KB cells at 10 ug/ml
[5] = test system: KB; assay: Cytotoxicity against human KB cells at 1 ug/ml

`CC(C)CC(N)c1nccc2c1[nH]c1cc(Br)ccc12` (centres undefined) [EUDISTALBIN A] was tested, and the Activity [1] was 92%, the EC50 ([2]; Homo sapiens, KB, read-out: ED50 (the source's name)) was 3.2 µg/mL (≈ 9.63 µM) and the EC50 [3] was 3.2 µg/mL (≈ 9.63 µM). For the same compound, the Activity [4] was 100% and the Activity [5] was 0%.

With `CC(C)CC(=O)c1nccc2c1[nH]c1cc(Br)ccc12` [EUDISTALBIN B] the Activity [4] was 0% and the Activity [5] was 0%.

In the case of `N[C@@H]1CSCON2CCc3c([nH]c4ccc(O)c(Br)c34)[C@H]12` [EUDISTOMIN E], the Activity [2] was 100% and the EC50 [3] was < 0.005 µg/mL.

Reference: ChEMBL document CHEMBL1159026, “Brominated beta-carbolines from the marine tunicate Eudistoma album” (1992)
